{
  "source": "paper PMC9719519",
  "about": "“Non-classical ferroptosis inhibition by a small molecule targeting PHB2” (Nature Communications, 2022)",
  "experiment_in_all_cases": "biochemical",
  "set-up_in_all_cases": "Eurofins recombinant human kinase profiling, remaining kinase activity as % of control, 10 uM ATP",
  "details_in_all_cases": "ATP 10 uM; read-out: %Ctrl@10 μM",
  "key": {"BIKe(h)": {"biological_target": "T1, BIKe(h) (Homo sapiens, UniProt Q9NSY1)", "T1 construct": "gene BMP2K", "summary_of_the_method": "(§1)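 Recombinant human kinases, 401 in total, screened using an outsourced kinase profiling assay.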"}, "CDK5/p35(h)": {"biological_target": "T2, CDK5/p35(h) (Homo sapiens, UniProt Q00535)", "T2 construct": "p35", "summary_of_the_method": "as §1"}, "CK2(h)": {"biological_target": "T3, CK2(h) (Homo sapiens, UniProt P68400)", "T3 construct": "gene CSNK2A1", "summary_of_the_method": "as §1"}, "CaMKIV(h)": {"biological_target": "T4, CaMKIV(h) (Homo sapiens, UniProt Q16566)", "T4 construct": "gene CAMK4", "summary_of_the_method": "as §1"}, "CaMKIδ(h)": {"biological_target": "T5, CaMKIδ(h) (Homo sapiens, UniProt Q8IU85)", "T5 construct": "gene CAMK1D", "summary_of_the_method": "as §1"}, "EGFR(T790M,L858R)(h)": {"biological_target": "EGFR(T790M,L858R)(h) (Homo sapiens, UniProt P00533, L858R/T790M)", "summary_of_the_method": "as §1"}, "Fes(h)": {"biological_target": "Fes(h) (Homo sapiens, UniProt P07332)", "sequence (P07332 whole entry)": "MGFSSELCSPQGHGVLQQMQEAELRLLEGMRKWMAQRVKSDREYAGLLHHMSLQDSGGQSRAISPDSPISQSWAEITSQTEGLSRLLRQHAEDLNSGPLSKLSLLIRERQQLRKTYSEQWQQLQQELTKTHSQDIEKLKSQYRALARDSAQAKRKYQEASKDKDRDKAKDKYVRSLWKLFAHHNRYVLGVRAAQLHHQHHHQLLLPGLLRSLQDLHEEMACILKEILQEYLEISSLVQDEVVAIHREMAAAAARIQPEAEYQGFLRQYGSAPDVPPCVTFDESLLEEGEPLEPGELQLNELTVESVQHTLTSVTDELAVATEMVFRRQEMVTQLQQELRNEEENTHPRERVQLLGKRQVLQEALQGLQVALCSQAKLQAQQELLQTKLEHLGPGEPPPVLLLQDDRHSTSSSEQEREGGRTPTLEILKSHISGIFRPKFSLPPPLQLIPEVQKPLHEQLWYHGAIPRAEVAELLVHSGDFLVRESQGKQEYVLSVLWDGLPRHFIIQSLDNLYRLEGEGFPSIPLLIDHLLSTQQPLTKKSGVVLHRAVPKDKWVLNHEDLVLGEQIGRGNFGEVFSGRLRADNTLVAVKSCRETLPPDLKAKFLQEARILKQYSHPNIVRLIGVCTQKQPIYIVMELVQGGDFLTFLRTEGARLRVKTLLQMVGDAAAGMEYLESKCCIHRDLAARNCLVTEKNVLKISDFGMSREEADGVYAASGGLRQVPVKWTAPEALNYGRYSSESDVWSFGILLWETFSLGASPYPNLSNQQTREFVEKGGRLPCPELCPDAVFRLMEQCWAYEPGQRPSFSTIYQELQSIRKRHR", "summary_of_the_method": "as §1"}, "Flt4(h)": {"biological_target": "Flt4(h) (Homo sapiens, UniProt P35916)", "summary_of_the_method": "as §1"}, "Fms(Y969C)(h)": {"biological_target": "T6, Fms(Y969C)(h) (Homo sapiens, UniProt P07333, Y969C)", "T6 construct": "gene CSF1R", "summary_of_the_method": "as §1"}, "HIPK2(h)": {"biological_target": "HIPK2(h) (Homo sapiens, UniProt Q9H2X6)", "sequence (Q9H2X6 whole entry)": "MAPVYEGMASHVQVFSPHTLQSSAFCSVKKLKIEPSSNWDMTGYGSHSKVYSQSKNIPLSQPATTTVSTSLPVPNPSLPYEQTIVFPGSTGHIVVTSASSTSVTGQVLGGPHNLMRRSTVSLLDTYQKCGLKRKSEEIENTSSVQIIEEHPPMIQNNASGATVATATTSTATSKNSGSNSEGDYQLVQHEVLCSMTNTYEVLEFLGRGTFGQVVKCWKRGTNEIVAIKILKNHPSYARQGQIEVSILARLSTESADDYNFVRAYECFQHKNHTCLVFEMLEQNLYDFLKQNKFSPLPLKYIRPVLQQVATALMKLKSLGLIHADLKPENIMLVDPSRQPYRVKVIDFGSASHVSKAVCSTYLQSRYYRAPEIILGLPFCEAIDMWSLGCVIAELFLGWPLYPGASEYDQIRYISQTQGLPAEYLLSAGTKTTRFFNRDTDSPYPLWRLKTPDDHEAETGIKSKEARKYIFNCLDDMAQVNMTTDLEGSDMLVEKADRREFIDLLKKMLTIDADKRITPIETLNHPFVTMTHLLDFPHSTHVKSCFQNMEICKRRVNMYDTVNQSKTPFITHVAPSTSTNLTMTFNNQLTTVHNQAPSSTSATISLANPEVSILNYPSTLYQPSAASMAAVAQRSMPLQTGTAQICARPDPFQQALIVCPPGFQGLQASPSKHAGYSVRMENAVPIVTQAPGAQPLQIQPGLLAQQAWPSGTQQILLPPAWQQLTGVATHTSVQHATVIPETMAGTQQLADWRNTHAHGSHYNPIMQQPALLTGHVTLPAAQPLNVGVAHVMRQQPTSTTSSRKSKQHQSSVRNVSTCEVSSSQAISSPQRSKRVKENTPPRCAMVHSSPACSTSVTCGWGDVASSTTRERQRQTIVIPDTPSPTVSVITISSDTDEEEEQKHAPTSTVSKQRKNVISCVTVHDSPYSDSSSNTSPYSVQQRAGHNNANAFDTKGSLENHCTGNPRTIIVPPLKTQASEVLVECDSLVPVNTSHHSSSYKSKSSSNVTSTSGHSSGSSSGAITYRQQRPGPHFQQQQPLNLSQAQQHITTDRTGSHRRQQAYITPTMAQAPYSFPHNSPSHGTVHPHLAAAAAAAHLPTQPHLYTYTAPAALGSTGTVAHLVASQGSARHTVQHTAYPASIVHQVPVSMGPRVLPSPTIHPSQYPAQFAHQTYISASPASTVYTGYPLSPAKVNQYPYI", "summary_of_the_method": "as §1"}, "HIPK3(h)": {"biological_target": "HIPK3(h) (Homo sapiens, UniProt Q9H422)", "sequence (Q9H422 whole entry)": "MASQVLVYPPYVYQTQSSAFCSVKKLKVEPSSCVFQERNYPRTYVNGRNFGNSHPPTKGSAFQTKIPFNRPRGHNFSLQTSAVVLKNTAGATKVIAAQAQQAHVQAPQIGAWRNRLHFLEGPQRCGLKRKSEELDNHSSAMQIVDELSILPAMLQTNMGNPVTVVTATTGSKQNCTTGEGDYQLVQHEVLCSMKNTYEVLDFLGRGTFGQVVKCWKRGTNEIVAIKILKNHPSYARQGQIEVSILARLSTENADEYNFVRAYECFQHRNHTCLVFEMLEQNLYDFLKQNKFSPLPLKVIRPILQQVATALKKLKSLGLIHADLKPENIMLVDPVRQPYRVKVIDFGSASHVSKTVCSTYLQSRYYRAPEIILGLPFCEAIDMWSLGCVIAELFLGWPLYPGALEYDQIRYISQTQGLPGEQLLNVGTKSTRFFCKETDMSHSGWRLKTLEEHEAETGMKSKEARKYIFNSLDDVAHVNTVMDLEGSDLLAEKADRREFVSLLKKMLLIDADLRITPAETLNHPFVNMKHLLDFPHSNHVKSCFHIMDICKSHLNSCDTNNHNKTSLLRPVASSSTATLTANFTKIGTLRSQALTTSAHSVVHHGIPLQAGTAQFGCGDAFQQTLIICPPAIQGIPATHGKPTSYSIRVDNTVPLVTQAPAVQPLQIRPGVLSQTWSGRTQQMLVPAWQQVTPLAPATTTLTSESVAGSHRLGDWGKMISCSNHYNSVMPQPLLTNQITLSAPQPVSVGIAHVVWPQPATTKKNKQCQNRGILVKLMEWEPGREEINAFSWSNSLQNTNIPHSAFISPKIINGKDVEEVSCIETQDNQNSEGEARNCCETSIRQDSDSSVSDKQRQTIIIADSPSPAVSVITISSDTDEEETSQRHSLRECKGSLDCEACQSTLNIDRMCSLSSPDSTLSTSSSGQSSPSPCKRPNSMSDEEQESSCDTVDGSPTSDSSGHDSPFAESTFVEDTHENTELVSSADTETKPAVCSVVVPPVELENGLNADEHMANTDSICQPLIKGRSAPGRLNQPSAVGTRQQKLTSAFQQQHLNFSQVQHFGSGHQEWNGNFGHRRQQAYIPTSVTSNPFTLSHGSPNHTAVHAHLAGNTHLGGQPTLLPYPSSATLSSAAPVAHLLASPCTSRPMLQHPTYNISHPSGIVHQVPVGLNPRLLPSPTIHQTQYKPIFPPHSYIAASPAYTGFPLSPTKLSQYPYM", "summary_of_the_method": "as §1"}, "HIPK4(h)": {"biological_target": "HIPK4(h) (Homo sapiens, UniProt Q8NE63)", "summary_of_the_method": "as §1"}, "HRI(h)": {"biological_target": "T7, HRI(h) (Homo sapiens, UniProt Q9BQI3)", "T7 construct": "gene EIF2AK1", "summary_of_the_method": "as §1"}, "IKKβ(h)": {"biological_target": "T8, IKKβ(h) (Homo sapiens, UniProt O14920)", "T8 construct": "gene IKBKB", "T8 sequence (O14920 whole entry)": "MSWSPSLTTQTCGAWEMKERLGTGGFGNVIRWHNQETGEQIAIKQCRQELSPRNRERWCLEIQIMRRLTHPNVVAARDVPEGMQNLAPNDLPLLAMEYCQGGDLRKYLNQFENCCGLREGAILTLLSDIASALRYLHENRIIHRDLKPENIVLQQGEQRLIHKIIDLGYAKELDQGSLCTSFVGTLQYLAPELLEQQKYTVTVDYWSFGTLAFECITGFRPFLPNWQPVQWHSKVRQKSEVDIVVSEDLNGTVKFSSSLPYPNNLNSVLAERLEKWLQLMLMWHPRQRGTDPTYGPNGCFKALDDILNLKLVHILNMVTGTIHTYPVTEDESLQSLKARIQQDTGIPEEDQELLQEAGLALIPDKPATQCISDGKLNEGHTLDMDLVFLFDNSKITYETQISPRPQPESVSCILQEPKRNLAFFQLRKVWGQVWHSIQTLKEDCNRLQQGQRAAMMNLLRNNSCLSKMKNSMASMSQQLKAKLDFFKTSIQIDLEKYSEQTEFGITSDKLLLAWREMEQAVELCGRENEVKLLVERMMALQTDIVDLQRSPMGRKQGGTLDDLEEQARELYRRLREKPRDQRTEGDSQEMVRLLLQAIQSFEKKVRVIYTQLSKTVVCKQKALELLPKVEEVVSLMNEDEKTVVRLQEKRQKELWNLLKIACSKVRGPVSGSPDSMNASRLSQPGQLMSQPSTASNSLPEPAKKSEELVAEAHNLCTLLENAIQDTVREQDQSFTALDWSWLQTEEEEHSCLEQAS", "summary_of_the_method": "as §1"}, "KDR(h)": {"biological_target": "KDR(h) (Homo sapiens, UniProt P35968)", "summary_of_the_method": "as §1"}, "MAPKAP-K2(h)": {"biological_target": "T9, MAPKAP-K2(h) (Homo sapiens, UniProt P49137)", "T9 construct": "gene MAPKAPK2", "summary_of_the_method": "as §1"}, "Mer(h)": {"biological_target": "T10, Mer(h) (Homo sapiens, UniProt Q12866)", "T10 construct": "gene MERTK", "T10 sequence (Q12866 whole entry)": "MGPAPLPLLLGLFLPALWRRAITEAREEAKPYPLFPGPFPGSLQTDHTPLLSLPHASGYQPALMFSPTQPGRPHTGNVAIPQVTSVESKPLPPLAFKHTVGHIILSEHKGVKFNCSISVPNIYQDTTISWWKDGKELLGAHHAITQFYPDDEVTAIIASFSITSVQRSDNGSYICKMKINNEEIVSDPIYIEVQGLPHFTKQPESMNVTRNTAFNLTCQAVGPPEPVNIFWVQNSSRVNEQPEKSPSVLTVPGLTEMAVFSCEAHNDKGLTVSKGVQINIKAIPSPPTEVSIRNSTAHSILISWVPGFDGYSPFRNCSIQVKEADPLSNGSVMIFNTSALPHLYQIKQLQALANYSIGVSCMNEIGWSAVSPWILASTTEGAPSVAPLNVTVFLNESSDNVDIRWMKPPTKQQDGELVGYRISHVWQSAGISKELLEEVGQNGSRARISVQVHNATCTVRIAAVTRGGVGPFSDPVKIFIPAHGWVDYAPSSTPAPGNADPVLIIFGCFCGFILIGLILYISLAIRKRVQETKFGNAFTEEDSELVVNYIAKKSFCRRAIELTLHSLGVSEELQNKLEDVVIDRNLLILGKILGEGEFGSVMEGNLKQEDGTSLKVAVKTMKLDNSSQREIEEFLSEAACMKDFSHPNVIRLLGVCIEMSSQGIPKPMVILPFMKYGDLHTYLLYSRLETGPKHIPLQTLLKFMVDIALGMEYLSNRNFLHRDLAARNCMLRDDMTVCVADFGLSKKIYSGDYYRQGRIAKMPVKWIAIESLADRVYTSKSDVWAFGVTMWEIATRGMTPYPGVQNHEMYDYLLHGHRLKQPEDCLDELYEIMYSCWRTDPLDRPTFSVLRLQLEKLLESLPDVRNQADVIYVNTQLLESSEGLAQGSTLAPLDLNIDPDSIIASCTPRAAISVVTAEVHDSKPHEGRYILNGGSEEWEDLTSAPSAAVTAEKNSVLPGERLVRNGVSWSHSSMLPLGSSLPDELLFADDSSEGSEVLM", "summary_of_the_method": "as §1"}, "PAK1(h)": {"biological_target": "PAK1(h) (Homo sapiens, UniProt Q13153)", "summary_of_the_method": "as §1"}, "PEK(h)": {"biological_target": "T11, PEK(h) (Homo sapiens, UniProt Q9NZJ5)", "T11 construct": "gene EIF2AK3", "summary_of_the_method": "as §1"}, "PKG1β(h)": {"biological_target": "T12, PKG1β(h) (Homo sapiens, UniProt Q13976)", "T12 construct": "gene PRKG1; isoform 1beta", "summary_of_the_method": "as §1"}, "Pyk2(h)": {"biological_target": "T13, Pyk2(h) (Homo sapiens, UniProt Q14289)", "T13 construct": "gene PTK2B", "summary_of_the_method": "as §1"}, "RIPK2(h)": {"biological_target": "RIPK2(h) (Homo sapiens, UniProt O43353)", "summary_of_the_method": "as §1"}},
  "data": [
    {"smiles": "C1=C(c2nc(-c3cnn(C4CCNCC4)c3)cn3cc(-c4ccccc4)nc23)CCOC1", "note": "[YL-939]", "values": [
      {"measurement": "remaining activity at 10 µM", "setting": "BIKe(h)", "result": 115, "unit": "%"},
      {"measurement": "remaining activity at 10 µM", "setting": "CDK5/p35(h)", "result": 100, "unit": "%"},
      {"measurement": "remaining activity at 10 µM", "setting": "CK2(h)", "result": 97, "unit": "%"},
      {"measurement": "remaining activity at 10 µM", "setting": "CaMKIV(h)", "result": 77, "unit": "%"},
      {"measurement": "remaining activity at 10 µM", "setting": "CaMKIδ(h)", "result": 90, "unit": "%"},
      {"measurement": "remaining activity at 10 µM", "setting": "EGFR(T790M,L858R)(h)", "result": 91, "unit": "%"},
      {"measurement": "remaining activity at 10 µM", "setting": "Fes(h)", "result": 86, "unit": "%"},
      {"measurement": "remaining activity at 10 µM", "setting": "Flt4(h)", "result": 85, "unit": "%"},
      {"measurement": "remaining activity at 10 µM", "setting": "Fms(Y969C)(h)", "result": 107, "unit": "%"},
      {"measurement": "remaining activity at 10 µM", "setting": "HIPK2(h)", "result": 90, "unit": "%"},
      {"measurement": "remaining activity at 10 µM", "setting": "HIPK3(h)", "result": 86, "unit": "%"},
      {"measurement": "remaining activity at 10 µM", "setting": "HIPK4(h)", "result": 106, "unit": "%"},
      {"measurement": "remaining activity at 10 µM", "setting": "HRI(h)", "result": 111, "unit": "%"},
      {"measurement": "remaining activity at 10 µM", "setting": "IKKβ(h)", "result": 87, "unit": "%"},
      {"measurement": "remaining activity at 10 µM", "setting": "KDR(h)", "result": 108, "unit": "%"},
      {"measurement": "remaining activity at 10 µM", "setting": "MAPKAP-K2(h)", "result": 92, "unit": "%"},
      {"measurement": "remaining activity at 10 µM", "setting": "Mer(h)", "result": 78, "unit": "%"},
      {"measurement": "remaining activity at 10 µM", "setting": "PAK1(h)", "result": 85, "unit": "%"},
      {"measurement": "remaining activity at 10 µM", "setting": "PEK(h)", "result": 99, "unit": "%"},
      {"measurement": "remaining activity at 10 µM", "setting": "PKG1β(h)", "result": 83, "unit": "%"},
      {"measurement": "remaining activity at 10 µM", "setting": "Pyk2(h)", "result": 108, "unit": "%"},
      {"measurement": "remaining activity at 10 µM", "setting": "RIPK2(h)", "result": 71, "unit": "%"}
    ]}
  ]
}
